Data taken from patent US11945822B2, “Pyrazolo-triazine and/or pyrazolo-pxrimidine derivatives as selective inhibitor of cyclin dependent kinase” (QURIENT CO., LTD., priority 2018, dated 2024).

test system: MV4-11; test: Cellular MV4-11 viability assay (CellTiter-Glo, 72 hours); type: cell-based; settings: Homo sapiens
Description: (§1) All cell lines were routinely tested for mycoplasma.
(§2) The effect of the CDK7 inhibitor to inhibit the growth of target cancer cells was evaluated through the 72 hours time period of viability assay. Briefly, the candidate cell line ware plated in 96 well plate at the following density of cells respectively. […] DMSO solvent without compound served as a control and final DMSO concentration less than 0.1%. After 72 hours of incubation at 37° C., 5% CO2 incubator, cells were analyzed for the viability using the CellTiter-Glo Luminescent Cell Viability Assay (Promega, Cat #G7570). All viability assays were performed in duplicate and Luminescence was read using an Envision (Perkin Elmer, USA). Data was analyzed using XLfit software.

| IC50 | Compound |
| --- | --- |
| < 1 µM | CNC(=O)c1cccc(-c2cnn(-c3ccccc3CNc3nc(N4CCC(N)CC4)nc4c(C(C)C)cnn34)c2)c1 [Compound 151] |
| < 1 µM | CC(C)c1cnn2c(NCc3c(Cl)cccc3-n3ccc(C(C)(C)O)n3)nc(N3CCC(CN)CC3)nc12 [Compound 217] |
| < 1 µM | CC(C)c1cnn2c(NCc3c(Cl)cccc3N3CCOCC3)nc(N3CCC(N)CC3)nc12 [Compound 206] |
| < 1 µM | CC(C)c1cnn2c(NCc3ccccc3-n3cc4cc(C(=O)NC5CC5)ccc4n3)nc(N3CCC(N)CC3)nc12 [Compound 161] |

test system: HCT116; test: Cellular HCT116 viability assay (CellTiter-Glo, 72 hours); type: cell-based; settings: Homo sapiens, HCT-116
Description: as §1, §2

| IC50 | Compound |
| --- | --- |
| < 1 µM | CNC(=O)c1cccc(-c2cnn(-c3ccccc3CNc3nc(N4CCC(N)CC4)nc4c(C(C)C)cnn34)c2)c1 [Compound 151] |
| < 1 µM | CC(C)c1cnn2c(NCc3c(Cl)cccc3-n3ccc(C(C)(C)O)n3)nc(N3CCC(CN)CC3)nc12 [Compound 217] |
| < 1 µM | CC(C)c1cnn2c(NCc3c(Cl)cccc3N3CCOCC3)nc(N3CCC(N)CC3)nc12 [Compound 206] |
| < 1 µM | CC(C)c1cnn2c(NCc3ccccc3-n3cc4cc(C(=O)NC5CC5)ccc4n3)nc(N3CCC(N)CC3)nc12 [Compound 161] |

target: T1, CDK7/Cyclin H/MNAT1 (Homo sapiens, UniProt P50613); test: Enzymatic assay for CDK7 (FRET based LANCE Ultra kinase assay); type: biochemical; settings: CDK7 over CDK1
T1 construct: purchased Invitrogen PR6749B
Procedure, shortened: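 Inhibition was measured at Km ATP by time-resolved FRET between a Eu anti-phospho antibody and a phosphorylated ULight peptide. The enzyme was the purified CDK7/cyclin complex, and data were curve-fitted.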

T1 sequence (P50613 whole entry): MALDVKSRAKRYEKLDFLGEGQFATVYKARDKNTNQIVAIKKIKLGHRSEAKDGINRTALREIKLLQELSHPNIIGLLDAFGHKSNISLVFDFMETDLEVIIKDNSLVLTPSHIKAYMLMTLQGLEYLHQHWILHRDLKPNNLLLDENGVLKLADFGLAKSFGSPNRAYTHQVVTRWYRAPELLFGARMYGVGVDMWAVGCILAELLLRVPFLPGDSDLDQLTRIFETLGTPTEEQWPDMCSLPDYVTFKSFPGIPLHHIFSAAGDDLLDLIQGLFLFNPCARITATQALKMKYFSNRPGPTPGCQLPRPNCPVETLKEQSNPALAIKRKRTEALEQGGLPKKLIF
T1 sequence (P51946 whole entry partner): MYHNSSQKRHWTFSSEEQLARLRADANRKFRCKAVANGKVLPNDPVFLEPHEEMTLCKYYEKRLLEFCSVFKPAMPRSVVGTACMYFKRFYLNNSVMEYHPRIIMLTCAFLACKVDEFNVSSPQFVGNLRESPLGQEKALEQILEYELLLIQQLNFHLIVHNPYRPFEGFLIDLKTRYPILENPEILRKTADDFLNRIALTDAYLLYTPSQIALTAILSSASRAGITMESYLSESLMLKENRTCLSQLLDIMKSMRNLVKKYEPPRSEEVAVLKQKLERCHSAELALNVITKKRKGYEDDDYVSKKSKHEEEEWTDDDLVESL
T1 sequence (P51948 whole entry partner): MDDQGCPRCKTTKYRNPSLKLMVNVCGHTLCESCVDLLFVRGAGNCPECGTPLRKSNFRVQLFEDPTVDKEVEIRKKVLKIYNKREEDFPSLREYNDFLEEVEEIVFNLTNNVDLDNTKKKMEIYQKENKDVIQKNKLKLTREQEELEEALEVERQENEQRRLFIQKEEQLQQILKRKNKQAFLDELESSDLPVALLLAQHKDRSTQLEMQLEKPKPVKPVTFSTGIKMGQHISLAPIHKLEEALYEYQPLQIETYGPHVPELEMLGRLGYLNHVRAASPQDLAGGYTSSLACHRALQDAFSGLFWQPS

| CDK1/CDK7: Selectivity of CDK7 inhibition over CDK1 inhibition | Compound |
| --- | --- |
| A (A=greater than 200 fold) | CNC(=O)c1cccc(-c2cnn(-c3ccccc3CNc3nc(N4CCC(N)CC4)nc4c(C(C)C)cnn34)c2)c1 [Compound 151] |
| A (A=greater than 200 fold) | CC(C)c1cnn2c(NCc3c(Cl)cccc3-n3ccc(C(C)(C)O)n3)nc(N3CCC(CN)CC3)nc12 [Compound 217] |
| A (A=greater than 200 fold) | CC(C)c1cnn2c(NCc3c(Cl)cccc3N3CCOCC3)nc(N3CCC(N)CC3)nc12 [Compound 206] |
| A (A=greater than 200 fold) | CC(C)c1cnn2c(NCc3ccccc3-n3cc4cc(C(=O)NC5CC5)ccc4n3)nc(N3CCC(N)CC3)nc12 [Compound 161] |

same assay, conditions: CDK7 over CDK2

| Compound | CDK2/CDK7: Selectivity of CDK7 inhibition over CDK2 inhibition |
| --- | --- |
| CNC(=O)c1cccc(-c2cnn(-c3ccccc3CNc3nc(N4CCC(N)CC4)nc4c(C(C)C)cnn34)c2)c1 [Compound 151] | B (B=less than 200 fold, but greater than 20 fold) |
| CC(C)c1cnn2c(NCc3c(Cl)cccc3-n3ccc(C(C)(C)O)n3)nc(N3CCC(CN)CC3)nc12 [Compound 217] | A (A=greater than 200 fold) |
| CC(C)c1cnn2c(NCc3c(Cl)cccc3N3CCOCC3)nc(N3CCC(N)CC3)nc12 [Compound 206] | A (A=greater than 200 fold) |
| CC(C)c1cnn2c(NCc3ccccc3-n3cc4cc(C(=O)NC5CC5)ccc4n3)nc(N3CCC(N)CC3)nc12 [Compound 161] | B (B=less than 200 fold, but greater than 20 fold) |

same assay, conditions: CDK7 over CDK5

| Compound | CDK5/CDK7: Selectivity of CDK7 inhibition over CDK5 inhibition |
| --- | --- |
| CNC(=O)c1cccc(-c2cnn(-c3ccccc3CNc3nc(N4CCC(N)CC4)nc4c(C(C)C)cnn34)c2)c1 [Compound 151] | B (B=less than 200 fold, but greater than 20 fold) |
| CC(C)c1cnn2c(NCc3c(Cl)cccc3-n3ccc(C(C)(C)O)n3)nc(N3CCC(CN)CC3)nc12 [Compound 217] | A (A=greater than 200 fold) |
| CC(C)c1cnn2c(NCc3c(Cl)cccc3N3CCOCC3)nc(N3CCC(N)CC3)nc12 [Compound 206] | B (B=less than 200 fold, but greater than 20 fold) |
| CC(C)c1cnn2c(NCc3ccccc3-n3cc4cc(C(=O)NC5CC5)ccc4n3)nc(N3CCC(N)CC3)nc12 [Compound 161] | B (B=less than 200 fold, but greater than 20 fold) |

same assay, conditions: read-out: CDK7 enzymatic activity (IC50 range)

| IC50 | Compound |
| --- | --- |
| < 0.1 µM | CNC(=O)c1cccc(-c2cnn(-c3ccccc3CNc3nc(N4CCC(N)CC4)nc4c(C(C)C)cnn34)c2)c1 [Compound 151] |
| < 0.1 µM | CC(C)c1cnn2c(NCc3c(Cl)cccc3-n3ccc(C(C)(C)O)n3)nc(N3CCC(CN)CC3)nc12 [Compound 217] |
| < 0.1 µM | CC(C)c1cnn2c(NCc3c(Cl)cccc3N3CCOCC3)nc(N3CCC(N)CC3)nc12 [Compound 206] |
| < 0.1 µM | CC(C)c1cnn2c(NCc3ccccc3-n3cc4cc(C(=O)NC5CC5)ccc4n3)nc(N3CCC(N)CC3)nc12 [Compound 161] |

target: T2, CDK1/Cyclin B (Homo sapiens, UniProt P06493); test: Enzymatic assay for CDK1 (FRET based LANCE Ultra kinase assay); type: biochemical; settings: read-out: CDK1 enzymatic activity (IC50 range)
T2 construct: purchased Invitrogen PR4768C
Procedure, shortened: (§3)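 LANCE Ultra TR-FRET: ULight-MBP peptide (68 nM) with ATP at Km, […], 60 min at 23° C. EDTA plus Eu-anti-phospho-MBP added, another 60 min, then 665/615 nm emission read. Compounds tested as 8-dose 4-fold DMSO dilutions.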

T2 sequence (P06493 whole entry): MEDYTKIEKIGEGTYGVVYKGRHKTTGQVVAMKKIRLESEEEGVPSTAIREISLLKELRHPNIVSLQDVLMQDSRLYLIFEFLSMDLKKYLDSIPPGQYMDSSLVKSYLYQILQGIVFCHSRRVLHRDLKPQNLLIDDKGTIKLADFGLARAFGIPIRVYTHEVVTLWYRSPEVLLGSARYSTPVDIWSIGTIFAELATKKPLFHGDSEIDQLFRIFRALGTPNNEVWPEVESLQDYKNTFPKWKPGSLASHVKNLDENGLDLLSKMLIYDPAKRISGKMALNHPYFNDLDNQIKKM
T2 sequence (P14635 whole entry partner): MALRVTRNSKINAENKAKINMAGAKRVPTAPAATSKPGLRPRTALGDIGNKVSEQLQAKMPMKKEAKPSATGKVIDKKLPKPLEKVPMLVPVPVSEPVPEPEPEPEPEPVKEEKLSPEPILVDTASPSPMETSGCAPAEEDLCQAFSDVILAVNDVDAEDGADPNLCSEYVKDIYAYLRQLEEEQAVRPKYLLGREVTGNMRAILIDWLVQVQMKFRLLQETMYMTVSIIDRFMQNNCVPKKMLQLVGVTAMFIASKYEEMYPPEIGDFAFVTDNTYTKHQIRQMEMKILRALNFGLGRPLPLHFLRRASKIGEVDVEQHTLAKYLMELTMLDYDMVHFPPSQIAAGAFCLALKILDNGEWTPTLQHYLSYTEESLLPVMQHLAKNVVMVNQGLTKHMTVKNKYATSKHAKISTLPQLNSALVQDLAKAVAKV

| IC50 | Compound |
| --- | --- |
| 0.1 to 1 µM | CNC(=O)c1cccc(-c2cnn(-c3ccccc3CNc3nc(N4CCC(N)CC4)nc4c(C(C)C)cnn34)c2)c1 [Compound 151] |
| > 1 µM | CC(C)c1cnn2c(NCc3c(Cl)cccc3-n3ccc(C(C)(C)O)n3)nc(N3CCC(CN)CC3)nc12 [Compound 217] |
| > 1 µM | CC(C)c1cnn2c(NCc3c(Cl)cccc3N3CCOCC3)nc(N3CCC(N)CC3)nc12 [Compound 206] |
| 0.1 to 1 µM | CC(C)c1cnn2c(NCc3ccccc3-n3cc4cc(C(=O)NC5CC5)ccc4n3)nc(N3CCC(N)CC3)nc12 [Compound 161] |

target: T3, CDK2/Cyclin A (Homo sapiens, UniProt P24941); test: Enzymatic assay for CDK2 (FRET based LANCE Ultra kinase assay); type: biochemical; settings: read-out: CDK2 enzymatic activity (IC50 range)
T3 construct: purchased Invitrogen PV6290
Procedure, shortened: as §3

| IC50 | Compound |
| --- | --- |
| 0.1 to 1 µM | CNC(=O)c1cccc(-c2cnn(-c3ccccc3CNc3nc(N4CCC(N)CC4)nc4c(C(C)C)cnn34)c2)c1 [Compound 151] |
| > 1 µM | CC(C)c1cnn2c(NCc3c(Cl)cccc3-n3ccc(C(C)(C)O)n3)nc(N3CCC(CN)CC3)nc12 [Compound 217] |
| > 1 µM | CC(C)c1cnn2c(NCc3c(Cl)cccc3N3CCOCC3)nc(N3CCC(N)CC3)nc12 [Compound 206] |
| 0.1 to 1 µM | CC(C)c1cnn2c(NCc3ccccc3-n3cc4cc(C(=O)NC5CC5)ccc4n3)nc(N3CCC(N)CC3)nc12 [Compound 161] |

target: T4, CDK5/p25 (Homo sapiens, UniProt Q00535); test: Enzymatic assay for CDK5 (FRET based LANCE Ultra kinase assay); type: biochemical; settings: read-out: CDK5 enzymatic activity (IC50 range)
T4 construct: purchased Invitrogen PR8543B
Procedure, shortened: as §3

T4 sequence (Q00535 whole entry): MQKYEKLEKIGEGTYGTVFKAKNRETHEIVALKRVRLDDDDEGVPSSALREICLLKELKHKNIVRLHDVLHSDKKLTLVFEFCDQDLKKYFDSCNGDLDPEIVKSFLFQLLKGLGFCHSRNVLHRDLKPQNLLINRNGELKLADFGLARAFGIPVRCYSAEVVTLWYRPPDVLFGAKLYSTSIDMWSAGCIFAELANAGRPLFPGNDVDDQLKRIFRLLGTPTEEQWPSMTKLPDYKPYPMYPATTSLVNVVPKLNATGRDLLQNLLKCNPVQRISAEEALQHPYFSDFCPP
T4 sequence (Q15078 99-307 partner limits assumed): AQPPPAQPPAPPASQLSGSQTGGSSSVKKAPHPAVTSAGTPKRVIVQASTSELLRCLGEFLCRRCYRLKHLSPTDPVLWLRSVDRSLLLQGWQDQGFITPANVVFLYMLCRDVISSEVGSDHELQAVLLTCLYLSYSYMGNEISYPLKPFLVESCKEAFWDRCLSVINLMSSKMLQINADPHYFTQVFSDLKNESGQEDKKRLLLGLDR

| IC50 | Compound |
| --- | --- |
| 0.1 to 1 µM | CNC(=O)c1cccc(-c2cnn(-c3ccccc3CNc3nc(N4CCC(N)CC4)nc4c(C(C)C)cnn34)c2)c1 [Compound 151] |
| > 1 µM | CC(C)c1cnn2c(NCc3c(Cl)cccc3-n3ccc(C(C)(C)O)n3)nc(N3CCC(CN)CC3)nc12 [Compound 217] |
| 0.1 to 1 µM | CC(C)c1cnn2c(NCc3c(Cl)cccc3N3CCOCC3)nc(N3CCC(N)CC3)nc12 [Compound 206] |
| 0.1 to 1 µM | CC(C)c1cnn2c(NCc3ccccc3-n3cc4cc(C(=O)NC5CC5)ccc4n3)nc(N3CCC(N)CC3)nc12 [Compound 161] |

test system: H460; test: Cellular H460 viability assay (CellTiter-Glo, 72 hours); type: cell-based; settings: Homo sapiens, NCI-H460
Procedure, shortened: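 Luminescent ATP read-out (CellTiter-Glo) after 72 h compound exposure at 37 °C/5% CO2; duplicate wells; vehicle control DMSO <0.1% final; seeding density set per cell line.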

| IC50 | Compound |
| --- | --- |
| < 1 µM | CNC(=O)c1cccc(-c2cnn(-c3ccccc3CNc3nc(N4CCC(N)CC4)nc4c(C(C)C)cnn34)c2)c1 [Compound 151] |
| < 1 µM | CC(C)c1cnn2c(NCc3c(Cl)cccc3-n3ccc(C(C)(C)O)n3)nc(N3CCC(CN)CC3)nc12 [Compound 217] |
| < 1 µM | CC(C)c1cnn2c(NCc3c(Cl)cccc3N3CCOCC3)nc(N3CCC(N)CC3)nc12 [Compound 206] |
| < 1 µM | CC(C)c1cnn2c(NCc3ccccc3-n3cc4cc(C(=O)NC5CC5)ccc4n3)nc(N3CCC(N)CC3)nc12 [Compound 161] |
